The values that follow come from patent US9611275B2 (priority 2012, dated 2017).

This series can be described thus: Assay for determination of apparent permeability (Papp), bi-directional transport. Conditions: pig, LLC-PK1.
Regarding `CO[C@@](C)([C@H]1O[C@@H]2SC(N(C)C)=N[C@@H]2[C@@H](O)[C@@H]1O)C(F)(F)F` (single isomer, unassigned) [Example 74], the Papp (usually a coefficient for how fast a substance crosses the barrier) at 3 h, 1 μM was 24.5 ×10⁻⁶ cm/s. With `CO[C@H]([C@H]1O[C@@H]2SC(N(C)C)=N[C@@H]2[C@@H](O)[C@@H]1O)C(F)(F)F` [Example 2, (3aR,5S,6S,7R,7aR)-2-(dimethylamino)-5-((R)-2,2,2-trifluoro-1-methoxyethyl)-5,6,7,7a-tetrahydro-3aH-pyrano[3,2-d]thiazole-6,7-diol], the Papp at 3 h, 1 μM stood at 20.8 ×10⁻⁶ cm/s. To `CNC1=N[C@@H]2[C@@H](O)[C@H](O)[C@@H]([C@H](Oc3ccccc3)C(F)(F)F)O[C@@H]2S1` [Example 3, (3aR,5S,6S,7R,7aR)-2-(methylamino)-5-((S)-2,2,2-trifluoro-1-phenoxyethyl)-5,6,7,7a-tetrahydro-3aH-pyrano[3,2-d]thiazole-6,7-diol] belongs 28.3 ×10⁻⁶ cm/s. Take `CNC1=N[C@@H]2[C@@H](O)[C@H](O)[C@@H]([C@@H](Oc3ccccc3)C(F)(F)F)O[C@@H]2S1` [Example 4, (3aR,5S,6S,7R,7aR)-2-(methylamino)-5-((R)-2,2,2-trifluoro-1-phenoxyethyl)-5,6,7,7a-tetrahydro-3aH-pyrano[3,2-d]thiazole-6,7-diol]: the Papp at 3 h, 1 μM is 27.3 ×10⁻⁶ cm/s. In the case of `CN(C)C1=N[C@@H]2[C@@H](O)[C@H](O)[C@@H]([C@@H](Oc3ccc([N+](=O)[O-])cc3)C(F)(F)F)O[C@@H]2S1` [Example 9, (3aR,5S,6S,7R,7aR)-2-(dimethylamino)-5-((R)-2,2,2-trifluoro-1-(4-nitrophenoxy)ethyl)-5,6,7,7a-tetrahydro-3aH-pyrano[3,2-d]thiazole-6,7-diol], the apparent permeability (Papp) at 3 h, 1 μM is 31.5 ×10⁻⁶ cm/s. Turning to `CN[C@H]([C@H]1O[C@@H]2SC(N(C)C)=N[C@@H]2[C@@H](O)[C@@H]1O)C(F)(F)F` [Example 16, (3aR,5R,6S,7R,7aR)-2-(dimethylamino)-5-((R)-2,2,2-trifluoro-1-(methylamino)ethyl)-5,6,7,7a-tetrahydro-3aH-pyrano[3,2-d]thiazole-6,7-diol], the Papp at 3 h, 1 μM was found to be 15.5 ×10⁻⁶ cm/s. With `C=CCOc1ccc(CO[C@H]([C@H]2O[C@@H]3SC(N(C)C)=N[C@@H]3[C@@H](O)[C@@H]2O)C(F)(F)F)cc1` [Example 20, (3aR,5S,6S,7R,7aR)-5-((R)-1-(4-(allyloxy)benzyloxy)-2,2,2-trifluoroethyl)-2-(dimethylamino)-5,6,7,7a-tetrahydro-3aH-pyrano[3,2-d]thiazole-6,7-diol], the Papp at 3 h, 1 μM was found to be 29.8 ×10⁻⁶ cm/s. Take `CCO[C@@H]([C@H]1O[C@@H]2SC(N(C)C)=N[C@@H]2[C@@H](O)[C@@H]1O)C(F)(F)F` [Example 22, (3aR,5S,6S,7R,7aR)-2-(dimethylamino)-5-((S)-1-ethoxy-2,2,2-trifluoroethyl)-5,6,7,7a-tetrahydro-3aH-pyrano[3,2-d]thiazole-6,7-diol]: the Papp at 3 h, 1 μM turned out to be 27.2 ×10⁻⁶ cm/s. As to `CCO[C@H]([C@H]1O[C@@H]2SC(N(C)C)=N[C@@H]2[C@@H](O)[C@@H]1O)C(F)(F)F` [Example 23, (3aR,5S,6S,7R,7aR)-2-(dimethylamino)-5-((R)-1-ethoxy-2,2,2-trifluoroethyl)-5,6,7,7a-tetrahydro-3aH-pyrano[3,2-d]thiazole-6,7-diol], the Papp at 3 h, 1 μM worked out at 23.6 ×10⁻⁶ cm/s. To `CCCO[C@H]([C@H]1O[C@@H]2SC(N(C)C)=N[C@@H]2[C@@H](O)[C@@H]1O)C(F)(F)F` [Example 25, (3aR,5S,6S,7R,7aR)-2-(dimethylamino)-5-((R)-2,2,2-trifluoro-1-propoxyethyl)-5,6,7,7a-tetrahydro-3aH-pyrano[3,2-d]thiazole-6,7-diol] belongs 29.5 ×10⁻⁶ cm/s; to `CCCCO[C@H]([C@H]1O[C@@H]2SC(N(C)C)=N[C@@H]2[C@@H](O)[C@@H]1O)C(F)(F)F` [Example 26, (3aR,5S,6S,7R,7aR)-5-((R)-1-butoxy-2,2,2-trifluoroethyl)-2-(dimethylamino)-5,6,7,7a-tetrahydro-3aH-pyrano[3,2-d]thiazole-6,7-diol], 30.8 ×10⁻⁶ cm/s; to `CCCCCO[C@H]([C@H]1O[C@@H]2SC(N(C)C)=N[C@@H]2[C@@H](O)[C@@H]1O)C(F)(F)F` [Example 27, (3aR,5S,6S,7R,7aR)-2-(dimethylamino)-5-((R)-2,2,2-trifluoro-1-(pentyloxy)ethyl)-5,6,7,7a-tetrahydro-3aH-pyrano[3,2-d]thiazole-6,7-diol], 32 ×10⁻⁶ cm/s. To `CN(C)C1=N[C@@H]2[C@@H](O)[C@H](O)[C@@H]([C@@H](OCCCF)C(F)(F)F)O[C@@H]2S1` [Example 29, (3aR,5S,6S,7R,7aR)-2-(dimethylamino)-5-((R)-2,2,2-trifluoro-1-(3-fluoropropoxy)ethyl)-5,6,7,7a-tetrahydro-3aH-pyrano[3,2-d]thiazole-6,7-diol] belongs 20.9 ×10⁻⁶ cm/s; to `CN(C)C1=N[C@@H]2[C@@H](O)[C@H](O)[C@@H]([C@@H](OCCCCF)C(F)(F)F)O[C@@H]2S1` [Example 30, (3aR,5S,6S,7R,7aR)-2-(dimethylamino)-5-((R)-2,2,2-trifluoro-1-(4-fluorobutoxy)ethyl)-5,6,7,7a-tetrahydro-3aH-pyrano[3,2-d]thiazole-6,7-diol], 30.8 ×10⁻⁶ cm/s; to `CN(C)C1=N[C@@H]2[C@@H](O)[C@H](O)[C@@H]([C@@H](OCC3CCCCC3)C(F)(F)F)O[C@@H]2S1` [Example 35, (3aR,5S,6S,7R,7aR)-5-((R)-1-(cyclohexylmethoxy)-2,2,2-trifluoroethyl)-2-(dimethylamino)-5,6,7,7a-tetrahydro-3aH-pyrano[3,2-d]thiazole-6,7-diol], 33.6 ×10⁻⁶ cm/s.

With `CN(C)C1=N[C@@H]2[C@@H](O)[C@H](O)[C@@H]([C@@H](OCCCc3ccc(F)cc3)C(F)(F)F)O[C@@H]2S1` [Example 36, (3aR,5S,6S,7R,7aR)-2-(dimethylamino)-5-((R)-2,2,2-trifluoro-1-(3-(4-fluorophenyl)propoxy)ethyl)-5,6,7,7a-tetrahydro-3aH-pyrano[3,2-d]thiazole-6,7-diol], the Papp at 3 h, 1 μM came to 28.1 ×10⁻⁶ cm/s. As for `Cc1ccc(CO[C@H]([C@H]2O[C@@H]3SC(N(C)C)=N[C@@H]3[C@@H](O)[C@@H]2O)C(F)(F)F)cc1` [Example 40, (3aR,5S,6S,7R,7aR)-2-(dimethylamino)-5-((R)-2,2,2-trifluoro-1-(4-methylbenzyloxy)ethy1)-5,6,7,7a-tetrahydro-3aH-pyrano[3,2-d]thiazole-6,7-diol], the Papp at 3 h, 1 μM was determined as 31.2 ×10⁻⁶ cm/s.

For `CCc1ccc(CO[C@H]([C@H]2O[C@@H]3SC(N(C)C)=N[C@@H]3[C@@H](O)[C@@H]2O)C(F)(F)F)cc1` [Example 41, (3aR,5S,6S,7R,7aR)-2-(dimethylamino)-5-((R)-1-(4-ethylbenzyloxy)-2,2,2-trifluoroethyl)-5,6,7,7a-tetrahydro-3aH-pyrano[3,2-d]thiazole-6,7-diol], the Papp at 3 h, 1 μM is 30.7 ×10⁻⁶ cm/s. The result for `CN(C)C1=N[C@@H]2[C@@H](O)[C@H](O)[C@@H]([C@@H](OCc3cccc(F)c3F)C(F)(F)F)O[C@@H]2S1` [Example 46, (3aR,5S,6S,7R,7aR)-5-((R)-1-(2,3-difluorobenzyloxy)-2,2,2-trifluoroethyl)-2-(dimethylamino)-5,6,7,7a-tetrahydro-3aH-pyrano[3,2-d]thiazole-6,7-diol] reads 34.5 ×10⁻⁶ cm/s; that for `C[C@H](O[C@H]([C@H]1O[C@@H]2SC(N(C)C)=N[C@@H]2[C@@H](O)[C@@H]1O)C(F)(F)F)c1ccccc1` [Example 47, (3aR,5S,6S,7R,7aR)-2-(dimethylamino)-5-((R)-2,2,2-trifluoro-1-((S)-1-phenylethoxy)ethyl)-5,6,7,7a-tetrahydro-3aH-pyrano[3,2-d]thiazole-6,7-diol], 34 ×10⁻⁶ cm/s; that for `COc1ccccc1CO[C@@H]([C@H]1O[C@@H]2SC(N(C)C)=N[C@@H]2[C@@H](O)[C@@H]1O)C(F)(F)F` [Example 49, (3aR,5S,6S,7R,7aR)-2-(dimethylamino)-5-((S)-2,2,2-trifluoro-1-(2-mcthoxybenzyloxy)ethyl)-5,6,7,7a-tetrahydro-3aH-pyrano[3,2-d]thiazole-6,7-diol], 29.8 ×10⁻⁶ cm/s. With `COc1ccccc1CO[C@H]([C@H]1O[C@@H]2SC(N(C)C)=N[C@@H]2[C@@H](O)[C@@H]1O)C(F)(F)F` [Example 50, (3aR,5S,6S,7R,7aR)-2-(dimethylamino)-5-((R)-2,2,2-trifluoro-1-(2-methoxybenzyloxy)ethyl)-5,6,7,7a-tetrahydro-3aH-pyrano[3,2-d]thiazole-6,7-diol], the Papp at 3 h, 1 μM was 31.5 ×10⁻⁶ cm/s. For the compound `COc1cccc(CO[C@H]([C@H]2O[C@@H]3SC(N(C)C)=N[C@@H]3[C@@H](O)[C@@H]2O)C(F)(F)F)c1` [Example 51, (3aR,5S,6S,7R,7aR)-2-(dimethylamino)-5-((R)-2,2,2-trifluoro-1-(3-methoxybenzyloxy)ethyl)-5,6,7,7a-tetrahydro-3aH-pyrano[3,2-d]thiazole-6,7-diol], the Papp at 3 h, 1 μM is 30.9 ×10⁻⁶ cm/s. Take `COc1ccc(CO[C@@H]([C@H]2O[C@@H]3SC(N(C)C)=N[C@@H]3[C@@H](O)[C@@H]2O)C(F)(F)F)cc1` [Example 53, (3aR,5S,6S,7R,7aR)-2-(dimethylamino)-5-((R)-2,2,2-trifluoro-1-(4-mcthoxybenzyloxy)ethyl)-5,6,7,7a-tetrahydro-3aH-pyrano[3,2-d]thiazole-6,7-diol]: the Papp at 3 h, 1 μM came to 33 ×10⁻⁶ cm/s. Turning to `COc1ccc(CO[C@H]([C@H]2O[C@@H]3SC(N(C)C)=N[C@@H]3[C@@H](O)[C@@H]2O)C(F)(F)F)cc1C` [Example 54, (3aR,5S,6S,7R,7aR)-2-(dimethylamino)-5-((R)-2,2,2-trifluoro-1-(4-methoxy-3-methylbenzyloxy)ethyl)-5,6,7,7a-tetrahydro-3aH-pyrano[3,2-d]thiazole-6,7-diol], the Papp at 3 h, 1 μM stood at 31.3 ×10⁻⁶ cm/s. On to `CCc1cc(CO[C@H]([C@H]2O[C@@H]3SC(N(C)C)=N[C@@H]3[C@@H](O)[C@@H]2O)C(F)(F)F)ccc1OC` [Example 59, (3aR,5S,6S,7R,7aR)-2-(dimethylamino)-5-((R)-1-(3-ethyl-4-methoxybenzyloxy)-2,2,2-trifluoroethyl)-5,6,7,7a-tetrahydro-3aH-pyrano[3,2-d]thiazole-6,7-diol], for which the Papp at 3 h, 1 μM amounted to 29.6 ×10⁻⁶ cm/s.
